Patent US10973826B2, “Antibody conjugates comprising toll-like receptor agonist” (Novartis AG, priority 2015, dated 2021)

Assay: In vitro stability of conjugates in mouse serum (LC-MS: succinimide ring hydrolysis, deconjugation)
Format: in vitro ADME
Details: conjugates of the compound with anti-HER2 mAb2
Experimental: The stability of the bond formed between maleimide containing payloads and Cys residues of the antibody is enhanced by the hydrolysis of the succinimide ring formed in this reaction. The effects of succinimide ring hydrolysis on the stability of antibody conjugates prepared with agonist compounds of the invention were studied after in vitro incubation in mouse serum. Mass changes resulting from payload deconjugation and the hydrolysis of the succinimide ring of maleimide payloads conjugated to antibodies were monitored by LC-MS. The hydrolysis of the succinimide ring has been reported to be stimulated by certain conditions such as high pH, high temperature, or high salts (J. Am. Chem. Soc. 1955, 77: 3922; Biochemistry 1976, 15: 2836; Biochem. J. 1979, 179: 191-197; J Pharm Sci. 1984, 73:1767-1771; Bioorg. Med. Chem. Lett. 17: 6286-6289, 2007). To probe the in vitro stability of conjugates, anti-HER2 antibody mAb2 conjugates were incubated at 37° C. in 50-70% mouse serum. […] The light chain, heavy chain Fab, and heavy chain Fc fragments were then analyzed by ESI-MS. The relative populations of deconjugated antibody, conjugates with attached payload with hydrolyzed succinimide ring, and conjugates with attached payload with intact succinimide ring, were calculated from the relative MS intensities of the corresponding conjugate species. […]

Structure (SMILES)	conjugate stability (deconjugation, succinimide ring hydrolysis)
CCCCCNc1nc(N)nc2ccn(Cc3ccc(CN4CCN(CCN5C(=O)C=CC5=O)CC4)cc3OC)c12 [Compound C-5, 1-(2-(4-(4-((2-amino-4-(pentylamino)-5H-pyrrolo[3,2-d]pyrimidin-5-yl)methyl)-3-methoxybenzyl)piperazin-1-yl)ethyl)-1H-pyrrole-2,5-dione]	improved conjugate stability
CCCCCNc1nc(N)nc2ccn(Cc3ccc(CN4CCN(C(=O)CCOCCOCCNC(=O)CN5C(=O)C=CC5=O)CC4)cc3OC)c12 [Compound C-21, N-(2-(2-(3-(4-(4-((2-amino-4-(pentylamino)-5H-pyrrolo[3,2-d]pyrimidin-5-yl)methyl)-3-methoxybenzyl)piperazin-1-yl)-3-oxopropoxy)ethoxy)ethyl)-2-(2,5-dioxo-2,5-dihydro-1H-pyrrol-1-yl)acetamide]	improved conjugate stability
